Where a name gives a salt, the structure may show the parent alone.
Cc1cc(N(C)CC(=O)N2CCN(Cc3ccoc3)CC2)ccc1Oc1ccc(NC(=O)c2ccc(C(F)(F)F)cc2)cn1 (as salt: hydrochloride) [compound 792] and COc1cc(N(C)CC(=O)N2CCN(Cc3ccoc3)CC2)ccc1Oc1ccc(NC(=O)c2ccc(C(F)(F)F)cc2)cn1 [compound 785] cannot be ordered by melting point: 158.5 to 161 °C for the first, 160 to 164 °C for the second.

First: CCN(CC(=O)N1CCN(Cc2ccccc2)CC1)c1ccc(Oc2ccc(NC(=O)c3ccc(C(F)(F)F)cc3)cn2)c(C)c1 (as salt: maleate) [compound 1513]
Second: Cc1cc(N(C)CC(=O)N2CCN(Cc3ccccc3)CC2)ccc1Oc1ccc(NC(=O)c2ccc(C(F)(F)F)cc2)cn1 [compound 1515]
The melting point of the first is higher: 165 to 167 °C for the first, 110 to 111 °C for the second.

Compared with O=C(Nc1ccc(Oc2ccc(C(=O)N3CCOCC3)cc2)cc1)c1ccc(Cl)c(Cl)c1 [Example No. 10], O=C(Nc1ccc(Oc2ccc(C(=O)N3CCOCC3)cc2)c(F)c1)c1ccc(Cl)c(Cl)c1 [Example No. 11] is higher in melting point: 189 to 192 °C for the first, 203 to 204 °C for the second.

Compared with O=C(Nc1ccc(Oc2ccc(C(=O)N3CCN(c4ccccn4)CC3)cc2)nc1)c1ccc(C(F)(F)F)cc1 [compound 176], CC(=O)N(CC(=O)N1CCN(Cc2ccccc2)CC1)c1ccc(Oc2ccc(NC(=O)c3ccc(C(F)(F)F)cc3)cn2)cc1 [compound 771] is lower in melting point: 222 to 224 °C for the first, 161 to 162 °C for the second.

First: CC(C)(C)OC(=O)N1CCN(C(=O)CCc2ccc(Oc3ccc(NC(=O)c4ccc(Cl)c(Cl)c4)cc3F)cc2)CC1 [compound 464]
Second: O=C(Nc1ccc(Oc2ccc(CCC(=O)N3CCN(c4cccnc4)CC3)cc2)c(F)c1)c1ccc(Cl)c(Cl)c1 [compound 467]
The melting point of the first is lower: 155 to 157 °C for the first, 183 to 185 °C for the second.

First: O=C(Nc1ccc(Oc2ccc(CCC(=O)N3CCN(c4cccnc4)CC3)cc2)cc1)c1ccc(Cl)c(Cl)c1 [compound 466]
Second: O=C(Nc1ccc(Oc2ccc(N3CCN(C(=O)COc4ccccc4)CC3)cc2)cc1)c1ccc(Cl)c(Cl)c1 [compound 2052]
The melting point of the first is lower: 153 to 155 °C for the first, 171 to 173 °C for the second.

First: Cc1cc(N(C)CC(=O)N2CCN(Cc3ccoc3)CC2)ccc1Oc1ccc(NC(=O)c2ccc(Cl)c(Cl)c2)cn1 [compound 718]
Second: Cc1cc(N(C)CC(=O)N2CCN(Cc3ccccc3)CC2)ccc1Oc1ccc(NC(=O)c2ccc(Cl)c(Cl)c2)cn1 [compound 1516]
The melting point of the first is higher: 116.5 to 118 °C for the first, 111 to 113 °C for the second.

First: CC(=O)N(CC(=O)N1CCN(Cc2ccc3c(c2)OCO3)CC1)c1ccc(Oc2ccc(NC(=O)c3ccc(Cl)c(Cl)c3)cn2)c(C)c1 [compound 725]
Second: CC(=O)N(CC(=O)N1CCN(Cc2ccc3c(c2)OCO3)CC1)c1ccc(Oc2ccc(NC(=O)c3ccc(Cl)c(Cl)c3)cn2)c(F)c1 [compound 730]
The melting point of the first is lower: 216 to 217 °C for the first, 233 to 235 °C for the second.

First: CCN(CC(=O)N1CCN(Cc2ccc3c(c2)OCO3)CC1)c1ccc(Oc2ccc(NC(=O)c3ccc(Cl)c(Cl)c3)cn2)c(F)c1 [compound 728]
Second: CN(CC(=O)N1CCN(Cc2ccc3c(c2)OCO3)CC1)c1ccc(Oc2ccc(NC(=O)c3ccc(Cl)c(Cl)c3)cn2)c(F)c1 [compound 729]
The melting point of the first is lower: 149 to 151 °C for the first, 199 to 201 °C for the second.

First: CCN(CC(=O)N1CCN(Cc2ccc3c(c2)OCO3)CC1)c1ccc(Oc2ccc(NC(=O)c3ccc(C(F)(F)F)cc3)cn2)cc1 [compound 774]
Second: CCN(CC(=O)N1CCN(Cc2ccc3c(c2)OCO3)CC1)c1ccc(Oc2ccc(NC(=O)c3ccc(C(F)(F)F)cc3)cn2)c(F)c1 [compound 775]
The melting point of the first is higher: 178 to 180 °C for the first, 170 to 172 °C for the second.

First: CN(CC(=O)N1CCN(Cc2ccc3c(c2)OCO3)CC1)c1ccc(Oc2ccc(NC(=O)c3ccc(C(F)(F)F)cc3)cn2)c(F)c1 [compound 776]
Second: Br.CN(CC(=O)N1CCN(Cc2ccc3c(c2)OCO3)CC1)c1cc(F)c(Oc2ccc(C(=O)Nc3ccc(C(F)(F)F)cc3)cn2)cc1F [compound 1037, 6-(4-{[2-(4-Piperonylpiperazin-1-yl)-2-oxoethyl]methylamino}-2,5-difluorophenoxy)-N-(4-trifluoromethylphenyl)nicotinamide hydrobromide]
The melting point of the first is lower: 220 to 221 °C for the first, 224.5 to 226 °C for the second.

First: CCN(CC(=O)N1CCN(Cc2ccoc2)CC1)c1ccc(Oc2ccc(NC(=O)c3ccc(C(F)(F)F)cc3)cn2)c(OC)c1 [compound 784]
Second: CCN(CC(=O)N1CCN(Cc2ccccc2)CC1)c1ccc(Oc2ccc(NC(=O)c3ccc(Cl)c(Cl)c3)cn2)c(C)c1 [compound 1514]
The melting point of the first is higher: 174 to 176 °C for the first, 102 to 105 °C for the second.

First: O=C(Nc1ccc(Oc2ccc(N3CCN(Cc4ccccc4)C3=O)cc2)nc1)c1ccc(C(F)(F)F)cc1 [compound 1181]
Second: O=C(Nc1ccc(Oc2ccc(N3CCN(Cc4ccccc4)C3=O)cc2)nc1)c1ccc(Cl)c(Cl)c1 [compound 1182]
The melting point of the first is higher: 203 to 204 °C for the first, 186 to 187 °C for the second.

Compared with Cc1cc(N2CCCN(Cc3ccc4c(c3)OCO4)C2=O)ccc1Oc1ccc(NC(=O)c2ccc(C(F)(F)F)cc2)cn1 [compound 1183], Cc1cc(N2CCN(Cc3ccc4c(c3)OCO4)C2=O)ccc1Oc1ccc(NC(=O)c2ccc(C(F)(F)F)cc2)cn1 [compound 1504, N-{6-[2-methyl-4-(2-oxo-3-piperonylimidazolidin-1-yl)phenoxy]pyridin-3-yl}-4-trifluoromethylbenzamide] is higher in melting point: 165 to 166 °C for the first, 188 to 189 °C for the second.

First: Cc1cc(N2CCCN(Cc3ccc4c(c3)OCO4)C2=O)ccc1Oc1ccc(NC(=O)c2ccc(Cl)c(Cl)c2)cn1 [compound 1184]
Second: COc1ccc(CN2CCCN(c3ccc(Oc4ccc(NC(=O)c5ccc(Cl)c(Cl)c5)cn4)c(C)c3)C2=O)cc1OC [compound 1187]
The melting point of the first is higher: 122 to 124 °C for the first, 117 to 118 °C for the second.

First: COc1ccc(CN2CCCN(c3ccc(Oc4ccc(NC(=O)c5ccc(C(F)(F)F)cc5)cn4)c(C)c3)C2=O)cc1OC [compound 1185]
Second: CCOC(=O)c1ccc(N2CCCN(c3ccc(Oc4ccc(NC(=O)c5ccc(C(F)(F)F)cc5)cn4)c(C)c3)C2=O)cc1 [compound 1188]
The melting point of the first is lower: 155 to 157 °C for the first, 160 to 161 °C for the second.

First: Cc1cc(N2CCCN(CC(=O)N3CCN(Cc4ccc5c(c4)OCO5)CC3)C2=O)ccc1Oc1ccc(NC(=O)c2ccc(C(F)(F)F)cc2)cn1 [compound 1186]
Second: Cc1cc(N2CCC(CC(=O)N3CCN(Cc4ccc5c(c4)OCO5)CC3)CC2)ccc1Oc1ccc(NS(=O)(=O)c2ccc(C(F)(F)F)cc2)cn1 [compound 2703, N-[6-(4-{4-[2-(4-piperonylpiperazin-1-yl)-2-oxoethyl]piperidin-1-yl}-2-methylphenoxy)pyridin-3-yl]-4-trifluoromethylbenzenesulfonamide]
The melting point of the first is higher: 182 to 183.5 °C for the first, 156 to 158 °C for the second.

First: CN(CC(=O)N1CCN(Cc2ccc3c(c2)OCO3)CC1)c1ccc(Oc2ccc(NS(=O)(=O)c3ccc(Cl)c(Cl)c3)cn2)c(F)c1 [compound 1615, 3,4-dichloro-N-[6-(2-fluoro-4-{methyl[2-oxo-2-(4-piperonylpiperazin-1-yl)ethyl]amino}phenoxy)pyridin-3-yl]benzenesulfonamide]
Second: CCN(CC(=O)N1CCN(Cc2ccc3c(c2)OCO3)CC1)c1ccc(Oc2ccc(NS(=O)(=O)c3ccc(Cl)c(Cl)c3)cn2)c(F)c1 [compound 2695, N-[6-(4-{[2-(4-piperonylpiperazin-1-yl)-2-oxoethyl]ethylamino}-2-fluorophenoxy)pyridin-3-yl]-3,4-dichlorobenzenesulfonamide]
The melting point of the first is higher: 185.6 to 187 °C for the first, 163 to 166 °C for the second.

First: O=C(Nc1ccc(Oc2ccc(N3CCN(S(=O)(=O)c4ccccc4)CC3)cc2)cc1)c1ccc(Cl)c(Cl)c1 [compound 2031, N-{4-[4-(4-benzenesulfonylpiperazin-1-yl)phenoxy]phenyl}-3,4-dichlorobenzamide]
Second: O=C(Nc1ccc(Oc2ccc(N3CCN(C(=O)c4ccc5c(c4)OCO5)CC3)cc2)cc1)c1ccc(Cl)c(Cl)c1 [compound 2053]
The melting point of the first is higher: 191 to 192 °C for the first, 116 to 118 °C for the second.

First: Cc1cc(N(C)CC(=O)N2CCN(C(=O)c3ccc4c(c3)OCO4)CC2)ccc1Oc1ccc(NC(=O)c2ccc(Cl)c(Cl)c2)cn1 [compound 2054]
Second: CC(=O)N(c1ccc(CCC(=O)N2CCN(Cc3ccc4c(c3)OCO4)CC2)cc1)c1ccc(NC(=O)c2ccc(Cl)c(Cl)c2)cn1 [compound 2099, N-[6-(Acetyl{4-[3-oxo-3-(4-piperonylpiperazin-1-yl)propyl]phenyl}amino)pyridin-3-yl]-3,4-dichlorobenzamide]
The melting point of the first is lower: 133 to 135 °C for the first, 150 to 165 °C for the second.

First: O=C(Nc1ccc(Oc2ccc(C3=CCN(CCCn4ccnc4)CC3)cc2)cc1)c1ccc(Cl)c(Cl)c1 [compound 2486, 3,4-Dichloro-N-(4-{4-[1-(3-imidazole-1-ylpropyl)-1,2,3,6-tetrahydropyridine-4-yl]phenoxy}phenyl)-benzamide]
Second: O=C(Nc1ccc(Oc2ccc(C3=CCN(C(=O)CN4CCOCC4)CC3)cc2)cc1)c1ccc(Cl)c(Cl)c1 [compound 2565]
The melting point of the first is lower: 169 to 171 °C for the first, 195 to 197 °C for the second.

First: O=C(Nc1ccc(Oc2ccc(N3CCN(C(=O)CN4CCOCC4)CC3)cc2)cc1)c1ccc(Cl)c(Cl)c1 [compound 2559]
Second: CN(C(=O)CN1CCOCC1)C1CCN(c2ccc(Oc3ccc(NC(=O)c4ccc(Cl)c(Cl)c4)cc3)cc2)CC1 [compound 2572]
The melting point of the first is higher: 177 to 178 °C for the first, 157 to 160 °C for the second.

Compared with O=C(CN1CCOCC1)c1ccc(Oc2ccc(NC(=O)c3ccc(Cl)c(Cl)c3)cc2F)cc1 [compound 2563], O=C(Nc1ccc(Oc2ccc(C(O)CN3CCOCC3)cc2)c(F)c1)c1ccc(Cl)c(Cl)c1 (stereo not drawn) [compound 2677] is lower in melting point: 177 to 178 °C for the first, 142 to 145 °C for the second.

With O=C(C1CCN(c2ccc(Oc3ccc(NS(=O)(=O)c4ccc(Cl)c(Cl)c4)cn3)cc2)CC1)N1CCN(Cc2ccccc2)CC1 [compound 2710, N-(6-{4-[4-(4-benzylpiperazine-1-carbonyl)piperidin-1-yl]phenoxy}pyridin-3-yl)-3,4-dichlorobenzenesulfonamide] the melting point was 185 to 189 °C.

For Cc1cc(N(C)CC(=O)N2CCN(Cc3ccc4c(c3)OCO4)CC2)ccc1Oc1ccc(NC(=O)c2ccc(Cl)c(Cl)c2)cn1 (as salt: hydrochloride) [compound 1512], the melting point was 183 to 185 °C (dec.).
